Assays:
[1] = tested on: lysine deacetylase activity in Golgi vesicles; assay: Membrane deacetylase activity, in vitro deacetylation of acetylated BACE1-myc by Golgi vesicles; assay type: biochemical, Chinese Hamster; settings: vesicles from ceramide-treated cells, 0.2% Triton X-100, 30° C.
From the text: (§1) Intact vesicles from the endoplasmic reticulum (ER) and the Golgi apparatus were purified on a 10-34% Iodixanol (OptiPrep; Axis-Shield, Norway) continuous gradient as described (Puglielli et al., 2001, Nat. Cell Biol. 3: 905-912). The complete migration of subcellular markers in a typical gradient is shown in Costantini et al., 2006, EMBO J. 25: 1997-2006; Puglielli et al., 2001, Nat. Cell Biol. 3: 905-912. Fractions enriched in ER and Golgi markers (also called ER or Golgi vesicles herein) were separated, pooled together, and resuspended in isotonic/cryogenic buffer (0.25 M sucrose and 10 mM Tris-HCl, pH 7.4) in the presence of protease inhibitors (Roche). Latency of ER and Golgi vesicles was determined with the glucose-6-phosphatase (Clairmont et al., 1992, J. Biol. Chem. 267: 3983-3900) and the sialyl-transferase (Puglielli and Hirschberg, 1999, J. Biol. Chem. 274: 35596-35600) methods, respectively. […]
BACE1 was eluted by lowering the pH to 2.0 and recovered by centrifuging at 3000 rpm for 2 min. […] BACE1 was then immunoprecipitated and counted on a liquid scintillation counter. […]
(§2) FIG. 6 illustrates how acetyltransferase and deacetylase activities exist in the lumen of ER and Golgi apparatus, respectively. […] The reaction was stopped by lowering the temperature; BACE1 was then purified again and analyzed on a scintillation liquid counter. […]

BACE1 = assay: Pulse-chase half-life of BACE1; assay type: cell-based, human; settings: following ceramide treatment; ~16 hours without
Procedure: Confluent cells were starved for 1 hr in Met/Cys free medium, labeled with 100 μCi [^35S]-Met/Cys (Trans35S-Label, >1000 Ci/mmol; Pierce) in starvation medium/dish and chased for 8, 16, and 24 hours with DMEM supplemented with 5 mM cold Met/Cys. Cell extracts were pre-cleared with BioMag Protein A (Polysciences, Inc.). Beads were used at the concentration of 15 μl of the slurry per sample and separated with a magnetic holder. BACE1 was then immunoprecipitated with anti-BACE1 antibodies and recovered with BioMag Protein A as above. The immunoprecipitate-bead complexes were washed 3 times and boiled in sample buffer. Beads were then separated and the samples were analyzed by reducing SDS-PAGE (on a 4-12% Bis-Tris NuPAGE system) and autoradiography.
FIG. 3 illustrates how transient lysine acetylation controls both translocation along the secretory pathway and molecular stability of the nascent BACE1 protein. […] Immunoprecipitates were analyzed by SDS-PAGE and autoradiography. […] BACE1 was then immunoprecipitated as above and analyzed by reducing SDS-PAGE and autoradiography. Results are expressed as percentage of total newly-synthesized BACE1. […] BACE1 was immunoprecipitated from total cell lysates and analyzed by SDS-PAGE and autoradiography. The half-life of BACE1 from five different readings is shown in FIG. 3(C), whereas a representative radiogram is shown in FIG. 3(D). […]

[2] = tested on: acetyl-CoA:lysine acetyltransferase activity in ER vesicles; assay: Membrane acetyltransferase activity, in vitro acetylation of BACE1-myc by ER vesicles; assay type: biochemical, Chinese Hamster; settings: vesicles from control or ceramide-treated cells, 0.2% Triton X-100, 30° C.
From the text: as §1
The reaction was stopped by adding 200 μl of ice-cold buffer and immediate immersion in ice; BACE1 was then immunoprecipitated and counted on a liquid scintillation counter. […]
as §2

Which “in vitro deacetylation of BACE1 by Golgi vesicles” value [1] does the source give for `CCCCCCCCCCCCC/C=C/[C@@H](O)[C@H](CO)NC(=O)CCCCC` [ceramide, C6-ceramide] here?
The value was “increased deacetylation”.

And the “half-life of native BACE1” value (BACE1)?
Its value is about 24 h.

What about the “in vitro acetylation of BACE1 by ER membrane vesicles” value [2] of the same compound?
The value was “no apparent difference”.

Reference: US20090042993A1, “IDENTIFICATION OF NOVEL POST-TRANSLATIONAL PROTEIN MODIFICATIONS” (priority 2007, published 2009)
